Data: PubChem BioAssay AID330 (DTP/NCI, 2004)
Values joined by “and” are separate entries in the source; they are usually repeats but may differ in a detail not shown here. Identical values can stand only once. Inconclusive results and toxic doses are left out. The calls were made as follows: active = survival T/C of 150% or more; inactive = T/C below 125% in these data.

Test system: P388 leukemia ip, CD2F1 mice, survival T/C
Experiment: NCI In Vivo Anticancer Drug Screen. Data for tumor model P388 Leukemia (intraperitoneal) in CD2F1 (CDF1) mice
Details: endpoint: median survival time, higher = longer survival
In short: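 Mice carrying the transplanted tumor received test compound or vehicle. Survival was recorded in each group, and the value is the treated-group measurement divided by that of the vehicle-treated control group.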

[1] = dose: 6.25 mg/kg/injection, schedule: Q01DX009 (ip), vehicle: saline
[2] = dose: 12.5 mg/kg/injection, schedule: Q01DX009 (ip), vehicle: saline
[3] = dose: 25.0 mg/kg/injection, schedule: Q01DX009 (ip), vehicle: saline
[4] = dose: 50.0 mg/kg/injection, schedule: Q04DX003 (ip), vehicle: saline with Tween-80
[5] = dose: 100.0 mg/kg/injection, schedule: Q04DX003 (ip), vehicle: saline with Tween-80
[6] = dose: 200.0 mg/kg/injection, schedule: Q04DX003 (ip), vehicle: saline with Tween-80
[7] = dose: 100.0 mg/kg/injection, schedule: Q04DX002 (ip), vehicle: saline with Tween-80
[8] = dose: 200.0 mg/kg/injection, schedule: Q04DX002 (ip), vehicle: saline with Tween-80
[9] = dose: 50.0 mg/kg/injection, schedule: Q01DX005 (ip), vehicle: Klucel (hydroxypropylcellulose) (HPC)
[10] = dose: 100.0 mg/kg/injection, schedule: Q01DX009 (ip), vehicle: saline with Tween-80
[11] = dose: 200.0 mg/kg/injection, schedule: Q01DX009 (ip), vehicle: saline with Tween-80
[12] = dose: 50.0 mg/kg/injection, schedule: Q01DX009 (ip), vehicle: Klucel (hydroxypropylcellulose) (HPC)
[13] = dose: 100.0 mg/kg/injection, schedule: Q01DX009 (ip), vehicle: Klucel (hydroxypropylcellulose) (HPC)
[14] = dose: 200.0 mg/kg/injection, schedule: Q01DX009 (ip), vehicle: Klucel (hydroxypropylcellulose) (HPC)

Measured: T/C

O=C(O)CP(=O)(O)O
inactive: dose: 4.0 mg/kg/injection, schedule: Q01DX009 (ip), vehicle: saline 94 % of control | [1] 100 % of control | dose: 8.0 mg/kg/injection, schedule: Q01DX009 (ip), vehicle: saline 99 % of control | [2] 101 % of control | dose: 16.0 mg/kg/injection, schedule: Q01DX009 (ip), vehicle: saline 91 % of control | [3] 106 % of control | dose: 32.0 mg/kg/injection, schedule: Q01DX009 (ip), vehicle: saline 100 % of control | dose: 50.0 mg/kg/injection, schedule: Q01DX009 (ip), vehicle: saline 103 % of control | dose: 64.0 mg/kg/injection, schedule: Q01DX009 (ip), vehicle: saline 102 % of control | dose: 100.0 mg/kg/injection, schedule: Q01DX009 (ip), vehicle: saline 103 % of control | dose: 128.0 mg/kg/injection, schedule: Q01DX009 (ip), vehicle: saline 94 % of control | dose: 200.0 mg/kg/injection, schedule: Q01DX009 (ip), vehicle: saline 106 % of control | dose: 400.0 mg/kg/injection, schedule: Q01DX009 (ip), vehicle: saline 101 % of control | dose: 800.0 mg/kg/injection, schedule: Q01DX009 (ip), vehicle: saline 106 % of control

C/C(=C\C=C1\N(C)c2ccccc2C1(C)C)N=C(C#N)C#N
inactive: [4] 93 % of control | [5] 91 % of control | [6] 96 % of control

CN1c2ccccc2C(C)(C)C2Nc3c(C#N)cnc(N)c3C21 (stereo not given)
inactive: [4] 96 % of control | [5] 105 % of control | [6] 109 % of control

CCCCNC(=S)NNc1nc(N(CC)CC)nc(N(CC)CC)n1
inactive: [7] 99 % of control | [8] 99 % of control

Cc1nc2c(nc1C)C(=O)c1cc(O)ccc1C2=O
inactive: [9] 101 % of control | dose: 100.0 mg/kg/injection, schedule: Q01DX005 (ip), vehicle: Klucel (hydroxypropylcellulose) (HPC) 104 % of control | dose: 200.0 mg/kg/injection, schedule: Q01DX005 (ip), vehicle: Klucel (hydroxypropylcellulose) (HPC) 100 % of control

CCC12COC3(C)CCC(C)(OC1)N23 (stereo not given)
inactive: dose: 50.0 mg/kg/injection, schedule: Q01DX005 (ip), vehicle: saline 100 % of control | dose: 50.0 mg/kg/injection, schedule: Q01DX009 (ip), vehicle: saline with Tween-80 91 % of control | dose: 100.0 mg/kg/injection, schedule: Q01DX005 (ip), vehicle: saline 100 % of control | [10] 91 % of control | dose: 200.0 mg/kg/injection, schedule: Q01DX005 (ip), vehicle: saline 103 % of control | [11] 98 % of control

COc1ccc(CC(C)NCC(O)c2ccc(O)c(NC=O)c2)cc1 (stereo not given)
inactive: [1] 100 % of control | [2] 101 % of control | [3] 99 % of control | dose: 50.0 mg/kg/injection, schedule: Q01DX009 (ip), vehicle: suspension in saline 99 % of control | dose: 200.0 mg/kg/injection, schedule: Q01DX009 (ip), vehicle: suspension in saline 91 % of control

CC(NNC(=S)N1CCCC1)c1cc2ccccc2cn1 (stereo not given)
inactive: dose: 25.0 mg/kg/injection, schedule: Q01DX005 (ip), vehicle: saline with Tween-80 104 % of control and 108 % of control | dose: 50.0 mg/kg/injection, schedule: Q01DX005 (ip), vehicle: saline with Tween-80 110 % of control and 123 % of control | dose: 100.0 mg/kg/injection, schedule: Q01DX005 (ip), vehicle: saline with Tween-80 104 % of control

CC(=O)OCC1OC([Se][As](C)C)C(OC(C)=O)C(OC(C)=O)C1OC(C)=O (stereo not given)
inactive: dose: 1.56 mg/kg/injection, schedule: Q01DX009 (ip), vehicle: saline with Tween-80 95 % of control | dose: 3.13 mg/kg/injection, schedule: Q01DX009 (ip), vehicle: saline with Tween-80 95 % of control | dose: 6.25 mg/kg/injection, schedule: Q01DX009 (ip), vehicle: saline with Tween-80 99 % of control | dose: 11.0 mg/kg/injection, schedule: Q01DX009 (ip), vehicle: saline with Tween-80 104 % of control | dose: 12.5 mg/kg/injection, schedule: Q01DX009 (ip), vehicle: saline with Tween-80 99 % of control | dose: 16.6 mg/kg/injection, schedule: Q01DX009 (ip), vehicle: saline with Tween-80 110 % of control | dose: 37.5 mg/kg/injection, schedule: Q01DX009 (ip), vehicle: saline with Tween-80 119 % of control

O=C(CCS(=O)(=O)CCC(=O)c1ccco1)c1ccco1
inactive: dose: 100.0 mg/kg/injection, schedule: Q04DX003 (ip), vehicle: saline 94 % of control | dose: 200.0 mg/kg/injection, schedule: Q04DX003 (ip), vehicle: saline 94 % of control | dose: 400.0 mg/kg/injection, schedule: Q04DX003 (ip), vehicle: saline 90 % of control

CN=C(N)N/N=C(\c1ccccc1)c1ccc(Cl)cc1
inactive: dose: 6.25 mg/kg/injection, schedule: Q04DX002 (ip), vehicle: saline with Tween-80 102 % of control | dose: 12.5 mg/kg/injection, schedule: Q04DX002 (ip), vehicle: saline with Tween-80 109 % of control
active: dose: 25.0 mg/kg/injection, schedule: Q04DX002 (ip), vehicle: saline with Tween-80 153 % of control

NNC(=O)c1ccccc1N
inactive: dose: 25.0 mg/kg/injection, schedule: Q01DX009 (ip), vehicle: water 96 % of control | dose: 50.0 mg/kg/injection, schedule: Q01DX009 (ip), vehicle: water 96 % of control

O=C(NC(=S)Nc1c(Cl)cccc1Cl)c1cccc(Cl)c1
inactive: dose: 12.5 mg/kg/injection, schedule: Q01DX005 (ip), vehicle: Klucel (hydroxypropylcellulose) (HPC) 106 % of control | dose: 25.0 mg/kg/injection, schedule: Q01DX005 (ip), vehicle: Klucel (hydroxypropylcellulose) (HPC) 92 % of control | [9] 94 % of control

Cc1cc(CSC(=N)N)c(C)cc1CSC(=N)N
inactive: dose: 5.0 mg/kg/injection, schedule: Q01DX009 (ip), vehicle: saline with Tween-80 100 % of control | dose: 10.0 mg/kg/injection, schedule: Q01DX009 (ip), vehicle: saline with Tween-80 109 % of control | dose: 10.0 mg/kg/injection, schedule: Q04DX003 (ip), vehicle: saline with Tween-80 108 % of control | dose: 20.0 mg/kg/injection, schedule: Q01DX009 (ip), vehicle: saline with Tween-80 109 % of control | dose: 20.0 mg/kg/injection, schedule: Q04DX003 (ip), vehicle: saline with Tween-80 104 % of control | dose: 40.0 mg/kg/injection, schedule: Q04DX003 (ip), vehicle: saline with Tween-80 116 % of control

Cc1ccc(S(=O)(=O)NN=C(c2ccccc2)c2ccccc2)cc1
inactive: dose: 12.5 mg/kg/injection, schedule: Q01DX009 (ip), vehicle: Klucel (hydroxypropylcellulose) (HPC) 98 % of control | dose: 25.0 mg/kg/injection, schedule: Q01DX009 (ip), vehicle: Klucel (hydroxypropylcellulose) (HPC) 93 % of control | [12] 87 % of control | [13] 88 % of control | [14] 86 % of control

O=C1CC2(CCCC2)C(=O)N1c1ccc(O)c(CN2CCCCC2)c1
inactive: [12] 99 % of control | [13] 104 % of control | [14] 98 % of control

Nc1cc2c(c[n+](CCO)c3ccccc23)c2ccccc12
inactive: dose: 12.5 mg/kg/injection, schedule: Q04DX003 (ip), vehicle: other 118 % of control | dose: 25.0 mg/kg/injection, schedule: Q04DX003 (ip), vehicle: other 111 % of control | dose: 50.0 mg/kg/injection, schedule: Q04DX003 (ip), vehicle: other 118 % of control | dose: 100.0 mg/kg/injection, schedule: Q04DX003 (ip), vehicle: other 102 % of control

O=c1cccc(Cl)[nH]1
inactive: [10] 100 % of control | [11] 95 % of control | dose: 400.0 mg/kg/injection, schedule: Q01DX009 (ip), vehicle: saline with Tween-80 100 % of control

Cc1nc2c([N+](=O)[O-])c(N3CCCCC3)c([N+](=O)[O-])cc2[nH]1
inactive: [7] 101 % of control | [8] 104 % of control
